Experimental data as given in patent publication US8975232B2, “Macrocyclic kinase inhibitors and uses thereof” (President and Fellows of Harvard College, priority 2010, dated 2015).
Where two headings read alike, the source gives them in different places.

How the values were obtained:
[1] = test system: panel of 44 human kinases; experiment: Kinase selectivity panel at 5 μM, Invitrogen SelectScreen; format: biochemical; settings: includes all nine Src-family kinases
Method: (§1) Src IC50 determinations and single-point inhibition measurements were performed using Invitrogen's Z′-LYTE Tyr 02 assay kit according to the manufacturer's protocols. All kinase assays were performed at ATP concentrations near KM,ATP values, except where noted otherwise. Active human Src kinase was obtained from Millipore. For kinome profiling and IC50 determinations against non-Src kinases, compounds were submitted to Invitrogen's SelectScreen Kinase Profiling Service.

[2] = biological target: ABL1 (Homo sapiens, UniProt P00519); experiment: SelectScreen kinase profiling; format: biochemical; settings: ABL1; 5 μM
Method: as §1

[3] = biological target: T1, AURKA (Aurora A) (Homo sapiens, UniProt O14965); experiment: SelectScreen kinase profiling; format: biochemical; settings: AURKA (Aurora A); 5 μM
T1 sequence (O14965 1-403): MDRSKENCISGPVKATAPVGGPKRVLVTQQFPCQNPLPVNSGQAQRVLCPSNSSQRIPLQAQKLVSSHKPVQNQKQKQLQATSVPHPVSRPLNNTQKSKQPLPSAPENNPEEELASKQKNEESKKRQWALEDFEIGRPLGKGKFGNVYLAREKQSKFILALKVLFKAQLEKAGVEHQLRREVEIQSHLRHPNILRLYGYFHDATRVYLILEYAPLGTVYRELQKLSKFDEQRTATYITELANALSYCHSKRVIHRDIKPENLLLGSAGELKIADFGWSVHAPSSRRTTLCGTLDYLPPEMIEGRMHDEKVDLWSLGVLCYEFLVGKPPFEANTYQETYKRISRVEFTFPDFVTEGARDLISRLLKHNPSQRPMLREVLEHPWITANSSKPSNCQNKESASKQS
Method: as §1

[4] = biological target: AURKB (Aurora B) (Homo sapiens, UniProt Q96GD4); experiment: SelectScreen kinase profiling; format: biochemical; settings: AURKB (Aurora B); 5 μM
Method: as §1

[5] = biological target: AURKC (Aurora C) (Homo sapiens, UniProt Q9UQB9); experiment: SelectScreen kinase profiling; format: biochemical; settings: 5 μM
Method: as §1

[6] = biological target: BLK (Homo sapiens, UniProt P51451); experiment: SelectScreen kinase profiling; format: biochemical; settings: 5 μM
Method: as §1

[7] = biological target: DYRK3 (Homo sapiens, UniProt O43781); experiment: SelectScreen kinase profiling; format: biochemical; settings: 5 μM
Method: as §1

[8] = biological target: FLT3 (Homo sapiens, UniProt P36888); experiment: SelectScreen kinase profiling; format: biochemical; settings: 5 μM
Chain of FLT3 (P36888 27-993): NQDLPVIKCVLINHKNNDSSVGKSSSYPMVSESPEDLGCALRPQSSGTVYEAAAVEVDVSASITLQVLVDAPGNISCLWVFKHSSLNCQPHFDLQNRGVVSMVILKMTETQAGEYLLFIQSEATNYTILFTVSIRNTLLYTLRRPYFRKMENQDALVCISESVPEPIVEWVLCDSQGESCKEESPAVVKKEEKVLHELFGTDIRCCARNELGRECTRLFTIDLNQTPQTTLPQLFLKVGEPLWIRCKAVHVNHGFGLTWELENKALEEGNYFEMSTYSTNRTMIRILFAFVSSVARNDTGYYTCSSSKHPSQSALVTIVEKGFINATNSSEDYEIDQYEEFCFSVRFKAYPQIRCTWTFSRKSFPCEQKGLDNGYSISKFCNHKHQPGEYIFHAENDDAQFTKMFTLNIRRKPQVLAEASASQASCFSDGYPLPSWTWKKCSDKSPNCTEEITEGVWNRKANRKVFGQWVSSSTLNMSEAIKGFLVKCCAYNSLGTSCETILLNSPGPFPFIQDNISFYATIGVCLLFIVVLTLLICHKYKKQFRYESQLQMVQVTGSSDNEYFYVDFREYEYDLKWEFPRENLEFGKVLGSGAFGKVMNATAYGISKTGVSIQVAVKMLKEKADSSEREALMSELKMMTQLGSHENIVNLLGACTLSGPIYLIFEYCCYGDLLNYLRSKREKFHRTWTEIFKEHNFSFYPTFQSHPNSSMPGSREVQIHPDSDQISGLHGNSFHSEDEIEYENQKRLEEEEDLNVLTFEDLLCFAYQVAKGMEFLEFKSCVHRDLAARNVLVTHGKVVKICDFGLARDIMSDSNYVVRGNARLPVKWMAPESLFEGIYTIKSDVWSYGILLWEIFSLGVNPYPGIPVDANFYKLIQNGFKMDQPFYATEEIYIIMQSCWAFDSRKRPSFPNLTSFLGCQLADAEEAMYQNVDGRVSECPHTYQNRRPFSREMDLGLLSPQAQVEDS
Method: as §1

[9] = biological target: FRK (PTK5) (Homo sapiens, UniProt P42685); experiment: SelectScreen kinase profiling; format: biochemical; settings: 5 μM
Chain of FRK (PTK5) (P42685 whole entry): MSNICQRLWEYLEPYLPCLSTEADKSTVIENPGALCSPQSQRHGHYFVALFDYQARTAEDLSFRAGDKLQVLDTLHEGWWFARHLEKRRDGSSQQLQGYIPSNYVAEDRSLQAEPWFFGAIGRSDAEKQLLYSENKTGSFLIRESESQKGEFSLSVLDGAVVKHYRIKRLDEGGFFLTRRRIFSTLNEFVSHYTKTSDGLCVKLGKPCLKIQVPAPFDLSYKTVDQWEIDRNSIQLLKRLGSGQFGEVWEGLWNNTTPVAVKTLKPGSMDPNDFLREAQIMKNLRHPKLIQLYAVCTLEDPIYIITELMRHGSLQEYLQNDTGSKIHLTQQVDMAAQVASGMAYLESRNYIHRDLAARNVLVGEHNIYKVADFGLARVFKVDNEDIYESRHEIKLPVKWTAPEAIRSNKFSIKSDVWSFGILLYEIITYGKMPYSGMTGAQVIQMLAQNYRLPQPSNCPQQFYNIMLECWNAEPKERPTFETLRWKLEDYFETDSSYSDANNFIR
Method: as §1

[10] = biological target: HCK (Homo sapiens, UniProt P08631); experiment: SelectScreen kinase profiling; format: biochemical; settings: HCK; 5 μM
Method: as §1

[11] = biological target: IGF1R (Homo sapiens, UniProt P08069); experiment: SelectScreen kinase profiling; format: biochemical; settings: 5 μM
Chain of IGF1R (P08069 31-1367): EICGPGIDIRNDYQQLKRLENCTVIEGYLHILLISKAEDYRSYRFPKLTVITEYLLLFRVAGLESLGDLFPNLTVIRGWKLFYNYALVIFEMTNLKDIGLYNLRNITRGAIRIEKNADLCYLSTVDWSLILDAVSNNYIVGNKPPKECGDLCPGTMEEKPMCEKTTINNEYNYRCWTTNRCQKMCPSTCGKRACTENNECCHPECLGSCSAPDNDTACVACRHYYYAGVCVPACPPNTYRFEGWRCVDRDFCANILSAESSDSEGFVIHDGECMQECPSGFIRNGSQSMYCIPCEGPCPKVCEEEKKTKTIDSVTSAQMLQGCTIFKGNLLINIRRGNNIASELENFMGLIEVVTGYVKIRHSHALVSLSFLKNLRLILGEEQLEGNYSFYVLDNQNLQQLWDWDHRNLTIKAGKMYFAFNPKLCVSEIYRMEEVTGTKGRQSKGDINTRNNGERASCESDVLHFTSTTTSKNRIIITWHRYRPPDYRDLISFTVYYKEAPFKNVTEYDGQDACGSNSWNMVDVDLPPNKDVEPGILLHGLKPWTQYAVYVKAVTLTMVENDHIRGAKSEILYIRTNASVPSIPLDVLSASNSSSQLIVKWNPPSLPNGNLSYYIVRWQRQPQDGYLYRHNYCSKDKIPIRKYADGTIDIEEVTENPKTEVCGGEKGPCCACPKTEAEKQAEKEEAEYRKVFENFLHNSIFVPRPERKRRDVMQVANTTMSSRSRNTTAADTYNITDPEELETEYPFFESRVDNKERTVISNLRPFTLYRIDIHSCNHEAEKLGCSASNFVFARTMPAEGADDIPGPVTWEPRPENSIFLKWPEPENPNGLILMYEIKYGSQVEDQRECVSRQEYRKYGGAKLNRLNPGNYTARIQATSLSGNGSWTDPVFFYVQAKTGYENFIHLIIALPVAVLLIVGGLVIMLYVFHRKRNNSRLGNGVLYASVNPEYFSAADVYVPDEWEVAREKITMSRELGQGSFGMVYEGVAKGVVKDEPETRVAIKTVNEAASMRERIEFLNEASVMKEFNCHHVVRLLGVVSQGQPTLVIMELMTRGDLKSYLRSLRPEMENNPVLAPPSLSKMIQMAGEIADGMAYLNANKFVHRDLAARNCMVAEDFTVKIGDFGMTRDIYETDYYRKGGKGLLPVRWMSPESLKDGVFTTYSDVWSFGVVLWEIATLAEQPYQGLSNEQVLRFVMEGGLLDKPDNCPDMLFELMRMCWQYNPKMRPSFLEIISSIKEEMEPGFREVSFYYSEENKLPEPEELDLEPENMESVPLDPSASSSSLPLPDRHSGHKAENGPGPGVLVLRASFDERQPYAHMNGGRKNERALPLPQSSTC
Method: as §1

[12] = biological target: IKBKB (IKK beta) (Homo sapiens, UniProt O14920); experiment: SelectScreen kinase profiling; format: biochemical; settings: 5 μM
Method: as §1

[13] = biological target: JAK3 (Homo sapiens, UniProt P52333); experiment: SelectScreen kinase profiling; format: biochemical; settings: 5 μM
Method: as §1

[14] = biological target: LCK (Homo sapiens, UniProt P06239); experiment: SelectScreen kinase profiling; format: biochemical; settings: 5 μM
Method: as §1

[15] = biological target: MAP2K1 (MEK1) (Homo sapiens, UniProt Q02750); experiment: SelectScreen kinase profiling; format: biochemical; settings: 5 μM
Method: as §1

[16] = biological target: MAPK14 (p38 alpha) (Homo sapiens, UniProt Q16539); experiment: SelectScreen kinase profiling; format: biochemical; settings: 5 μM
Method: as §1

[17] = biological target: MARK2 (Homo sapiens, UniProt Q7KZI7); experiment: SelectScreen kinase profiling; format: biochemical; settings: 5 μM
Method: as §1

[18] = biological target: PAK4 (Homo sapiens, UniProt O96013); experiment: SelectScreen kinase profiling; format: biochemical; settings: 5 μM
Method: as §1

[19] = biological target: RET (Homo sapiens, UniProt P07949); experiment: SelectScreen kinase profiling; format: biochemical; settings: 5 μM
Chain of RET (P07949 29-1114): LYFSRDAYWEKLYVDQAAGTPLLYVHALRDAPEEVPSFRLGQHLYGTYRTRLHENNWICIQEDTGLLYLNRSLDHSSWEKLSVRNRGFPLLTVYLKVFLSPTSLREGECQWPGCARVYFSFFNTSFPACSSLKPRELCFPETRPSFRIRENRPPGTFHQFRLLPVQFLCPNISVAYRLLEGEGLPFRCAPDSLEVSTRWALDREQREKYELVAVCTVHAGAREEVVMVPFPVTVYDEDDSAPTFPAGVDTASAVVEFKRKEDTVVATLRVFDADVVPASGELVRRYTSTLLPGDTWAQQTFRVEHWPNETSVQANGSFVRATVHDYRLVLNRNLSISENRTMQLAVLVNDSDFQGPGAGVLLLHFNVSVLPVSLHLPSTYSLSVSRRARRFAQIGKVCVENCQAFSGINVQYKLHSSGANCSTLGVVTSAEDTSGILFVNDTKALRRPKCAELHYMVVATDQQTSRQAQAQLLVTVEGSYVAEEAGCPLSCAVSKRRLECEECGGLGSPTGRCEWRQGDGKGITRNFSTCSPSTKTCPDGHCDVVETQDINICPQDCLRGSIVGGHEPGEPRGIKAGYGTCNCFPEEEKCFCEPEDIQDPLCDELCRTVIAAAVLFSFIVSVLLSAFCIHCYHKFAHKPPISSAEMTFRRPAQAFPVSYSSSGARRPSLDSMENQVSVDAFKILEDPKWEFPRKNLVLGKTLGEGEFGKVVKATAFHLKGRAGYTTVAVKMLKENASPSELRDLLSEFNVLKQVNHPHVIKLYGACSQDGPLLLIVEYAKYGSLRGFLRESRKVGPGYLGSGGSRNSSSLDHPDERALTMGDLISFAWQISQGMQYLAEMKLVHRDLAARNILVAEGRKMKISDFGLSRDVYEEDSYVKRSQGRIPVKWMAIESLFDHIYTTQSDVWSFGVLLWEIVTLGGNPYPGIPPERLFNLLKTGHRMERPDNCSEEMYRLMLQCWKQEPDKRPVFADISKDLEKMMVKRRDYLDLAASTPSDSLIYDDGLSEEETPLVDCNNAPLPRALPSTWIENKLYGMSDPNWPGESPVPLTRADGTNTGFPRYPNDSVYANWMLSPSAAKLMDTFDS
Method: as §1

[20] = biological target: RPS6KA3 (RSK2) (Homo sapiens, UniProt P51812); experiment: SelectScreen kinase profiling; format: biochemical; settings: 5 μM
Chain of RPS6KA3 (RSK2) (P51812 whole entry): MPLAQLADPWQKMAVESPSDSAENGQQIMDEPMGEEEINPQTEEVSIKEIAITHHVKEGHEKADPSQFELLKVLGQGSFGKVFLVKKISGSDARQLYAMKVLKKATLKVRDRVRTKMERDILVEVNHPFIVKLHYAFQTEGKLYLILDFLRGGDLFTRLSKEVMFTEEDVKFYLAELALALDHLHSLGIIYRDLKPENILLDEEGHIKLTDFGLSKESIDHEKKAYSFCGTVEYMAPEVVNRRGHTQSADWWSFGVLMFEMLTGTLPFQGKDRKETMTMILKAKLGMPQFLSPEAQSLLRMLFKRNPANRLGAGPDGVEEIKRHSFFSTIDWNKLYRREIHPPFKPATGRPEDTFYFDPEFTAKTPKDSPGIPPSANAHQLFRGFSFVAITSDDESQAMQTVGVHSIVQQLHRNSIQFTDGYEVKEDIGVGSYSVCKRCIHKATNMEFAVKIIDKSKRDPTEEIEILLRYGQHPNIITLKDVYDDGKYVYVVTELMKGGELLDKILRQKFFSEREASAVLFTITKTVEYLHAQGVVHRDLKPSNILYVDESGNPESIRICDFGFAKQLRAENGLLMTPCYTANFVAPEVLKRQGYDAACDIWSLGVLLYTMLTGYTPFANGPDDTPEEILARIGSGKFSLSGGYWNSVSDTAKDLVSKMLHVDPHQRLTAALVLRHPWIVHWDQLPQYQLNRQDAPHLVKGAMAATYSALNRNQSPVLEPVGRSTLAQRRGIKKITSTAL
Method: as §1

[21] = biological target: T2, Lck (Mus musculus, UniProt P06240); experiment: Continuous spectrophotometric kinase activity assay; format: biochemical, murine
T2 construct: murine Lck (residues 227-509); made in house
T2 sequence (P06240 227-509): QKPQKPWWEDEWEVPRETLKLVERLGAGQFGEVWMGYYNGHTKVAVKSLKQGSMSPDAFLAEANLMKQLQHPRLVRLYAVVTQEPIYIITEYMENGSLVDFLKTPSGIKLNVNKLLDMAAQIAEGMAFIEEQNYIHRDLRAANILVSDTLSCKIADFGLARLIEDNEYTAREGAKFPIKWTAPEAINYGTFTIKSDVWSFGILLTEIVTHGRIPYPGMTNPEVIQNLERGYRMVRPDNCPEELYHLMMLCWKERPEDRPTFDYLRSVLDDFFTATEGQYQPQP

[22] = biological target: T3, Src kinase domain (Gallus gallus, UniProt P00523); experiment: Fluorescence anisotropy binding assay; design: species or system chicken; settings: fluorescein-labeled macrocycle, read-out: dissociation constant (KD)
T3 construct: chicken c-Src (residues 251-533 and residues 83-533); made in house
Method: The change in fluorescence anisotropy of fluorescein-labeled MC1, MC4 and MC9 at 518 nm upon excitation at 492 nm was monitored with a HORIBA Jobin Yvon FluoroMax-4 (Edison, N.J.) spectrofluorimeter. Kinase was titrated to 0.5 μM of the fluorescently labeled macrocycle in 100 mM Tris pH 8.0, 10 mM MgCl2 at 25° C. After equilibration, the increase in the fluorescence anisotropy of the fluorescently labeled ligand was recorded and fitted against a quadratic binding equation in Kaleidagraph (Synergy Software, Reading Pa.) to yield the dissociation constant KD.
To clarify the inhibitory mechanism of the compounds further, the binding affinity of fluorescently labeled MC1, MC4, and MC9 to Src kinase domain was determined in a fluorescence anisotropy assay (FIG. 21).

SMILES: NC(=O)[C@@H]1CCCNC(=O)[C@H](Cc2ccc([N+](=O)[O-])cc2)NC(=O)[C@H](Cc2ccco2)NC(=O)[C@H](CC2CC2)NC(=O)/C=C/C(=O)N1 [trans-A10-B1-C5-D6]
- off-target inhibition in kinase panel (in words) [1]: no significant off-target inhibition
- % inhibition [2]: 18%
- % inhibition [3]: 10%
- % inhibition [4]: 0%
- % inhibition [5]: 2%
- % inhibition [6]: 10%
- % inhibition [7]: 4%
- % inhibition [8]: 7%
- % inhibition [9]: 15%
- % inhibition [10]: 9%
- % inhibition [11]: 9%
- % inhibition [12]: −1%
- % inhibition [13]: −7%
- % inhibition [14]: 17%
- % inhibition [15]: −6%
- % inhibition [16]: 32%
- % inhibition [17]: 1%
- % inhibition [18]: −2%
- % inhibition [19]: 6%
- % inhibition [20]: −4%
- IC50 ([21]; 5 μM ATP, 100 μM Src optimal peptide): > 100000 nM
- IC50 ([21]; 5 μM ATP, 300 μM Src optimal peptide): > 100000 nM
- IC50 ([21]; 250 μM ATP, 300 μM Src optimal peptide): > 100000 nM
- Kd ([22]; 250 μM AMP-PNP): 1700 nM
- Kd ([22]; no competitor): 300 nM
